Data on ten compounds can be found in US6599936B1, “Anti-sebum skin care cosmetic compositions containing branched esters” (Unilever Home & Personal Care USA division of Conopco, Inc., priority 1999, dated 2003).

Read-outs that look alike come from different tables or passages of the source.

Holding throughout (type): cell-based
Assay [1] deals with human sebocytes. The assay can be described thus: Sebocyte assay: 14C-acetate label remaining in sebocytes (sebum suppression in vitro). The note with it: for inhibition at 0.001 %: 0.001% test agent; for inhibition at 0.01 %: 0.01% test agent; for sebum suppression, result in words: conclusion drawn from Tables 1-5. As to the method: Secondary cultures of human sebocytes obtained from an adult […] were grown in 48-well or 96-well tissue culture plates (Costar Corp.; Cambridge, Mass.) until three days post-confluence. Sebocyte growth medium consisted of Clonetics Keratinocyte Basal Medium (KBM) supplemented With 14 μg/ml bovine pituitary extract, 0.4 μ/ml hydrocortisone, 5 μ/ml insulin, 10ng/ml epidermal growth factor, 1.2×10^−10 M cholera toxin, 100 units/ml penicillin, and 100 μg/ml streptomycin. All cultures were incubated at 37° C. in the presence of 7.5% CO2. Medium was changed three times per week.
On the day of experimentation, the growth medium was removed and the sebocytes washed three times with sterile Dulbecco's Modified Eagle Medium (DMEM; phenol red free). Fresh DMEM was added to each sample (triplicates) with 1-5 microliter of test agent solubilized in ethanol. Controls consisted of addition of ethanol alone. Each plate was returned to the incubator for 20 hours followed by the addition of ^14C-acetate buffer (5 mM final concentration, 56 mCi/mmol specific activity). Sebocytes were returned to the incubator for four hours afterwhich each culture was rinsed three times with phosphate buffered saline to remove unbound label. Radioactive label remaining in the sebocytes was harvested and counted using a Beckman scintillation counter. Statistical significance (p value) was calculated using student's t-test. Phenol Red, a known sebum suppressive agent, was employed as a positive control.

The test system of assay [2] is Neonatal human dermal fibroblasts. The assay can be described thus: Procollagen I production by fibroblasts, slot blot. The method, then: Neonatal human dermal fibroblasts were purchased from Clonetics Corp., San Diego, Calif. All materials for cell culture were purchased from Life Technologies, NY and used in passages 5-10. Cells were seeded at a density of approximately 7,500/well in the inner 48 wells of a 96-well plate in a medium containing DMEM (Dulbecco's Modified Eagle's Medium), high-glucose supplemented with 2 mM L-glutamine, 10% fetal bovine serum, and antibiotic and antimycotic solutions). Cells were then grown to confluence for 2 days. At confluence, the medium was removed and cells were washed with serum-free DMEM, and each well dosed with 200 μl of a solution of a test compound in serum-free DMEM. Each dosing was replicated in the total of six wells. […] After 24 hours, the test compound solution or the control solution was removed and cells redosed with 100 μl of a solution of a test compound in serum-free DMEM. After 24 hours, the test compound solution or the control solution was removed and stored over the weekend at 4° C. with protease inhibitor (Aprotinin from Sigma) in a ratio of aprotinin to water of 1:200. The test compound solution was then diluted in DMEM (approximately 20 μl sample in 200 μl DMEM).
Nitrocellulose membrane and 3 sheets of filter paper were soaked in TRIS buffered saline (TBS, pH 7.3.). BioRad slot blot apparatus (BioRad Labs, CA) was set up with filter paper on bottom, membrane on top, tightened. […] TBS was added per well. Vacuum was used to suck wells through membrane. The diluted test compound solution or control was vortexed, then 100 μl was loaded per well and gravity dried. Procollagen from the test solution was bound to the membrane at this point in the procedure. Membrane was removed from the apparatus, excess cut off, and bottom right corner notched for orientation. The membrane was placed in blocking solution (5% milk powder in Dulbecco's phosphate buffered saline) overnight at 4° C., with shaking. The membrane was then incubated for 1.5 hrs at room temperature with 1.5 mL Rat Anti-Human Procollagen Amino-Terminal Ab (Chemicon MAB1912) in TBS with 0.1% BSA (ratio of antibody to buffer/BSA was 1:100) in a sealed bag with shaking. The membrane was then removed; washed 3 times for 5 minutes in TBS/0.1% Tween. The membrane was then incubated for 1 hour at room temperature in 2 mL of Biotinylated Anti-Rat Peroxidase-Conjugated Ab (Vector Labs) in TBS with 0.1% BSA (ratio of antibody to buffer/BSA was 1:1000) in a sealed bag with shaking.
The membrane was washed 3 times for 5 minutes in TBS/0.1%Tween. 3 mL PBS was incubated with 30 μl each of solutions A and B from Vectastain Kit for 30 minutes. The membrane was placed in the resulting solution for 30 minutes in a sealed bag with shaking. The membrane was then removed and washed twice for 5 minutes in TBS/0.1% Tween. The membrane was then stained using the following solution:
12.5 mg 3-amino 9-ethyl carbazole (Sigma)
3.125 (approximately) mL DMF (N,N-dimethylformamide, from Sigma)
The membrane was stained until color developed and the reaction stopped with 2 washes for 10 minutes in tap water. A transparency of the blot was prepared using a color copier. Blot was scanned on Bio-Rad GS-700 Image Analysis densitometer and volume (OD*mm^2) of color/slot determined using molecular analysis software. Fold increase was calculated as a ratio of densitometer reading for cells treated with a test compound over control.

Assay [3] shares this test system. The assay can be described thus: Glycosaminoglycan synthesis by fibroblasts, Alcian Blue dot blot. The note with it: Table 7, glycosaminoglycans. The method, then: Neonatal human dermal fibroblasts were seeded at a density of approximately 50,000/well in a 12-well plate in a medium containing DMEM (high glucose supplemented with 2 mM L-glutamine, 10% fetal bovine serum, antibiotic and antimycotic solutions). Cells were then grown to confluence for 2 days. At confluence, each well was rinsed in serum-free DMEM and the cells dosed with test compounds (in triplicate) in 750 μL of serum-free DMEM. After 24 hours, this medium was aspirated and the treatment step repeated. After a second 24-hour period, this medium, containing the soluble GAGs, was collected and frozen until analysis.
A positively-charged Zeta Probe membrane was soaked in sterile water and placed into the Dot-Blot Apparatus (both Bio-Rad Labs, Hercules, Calif.). 100 μL of water was applied to each well and pulled through using a vacuum. After thawing, 100 μL of test solution samples or standards (Hyaluronic acid or Chondroitin Sulfate from bovine trachea, Sigma, St. Louis, Mo.) was applied to the membrane and allowed to gravity filter (about 1.5-2 hours). GAGs were now bound to membrane. The membrane was blocked in 3% w/v fatty acid free bovine serum albumin (Sigma) in water for one hour. A dye solution of 0.5% w/v Alcian Blue dye (ICN Biochemicals, Cleveland, Ohio.) in 3% acetic acid, pH approximately 2.3, was made. The membrane was washed twice in distilled water and then stained in the dye solution on a rotary shaker for 15 minutes. The dye was poured off and the membrane destained twice for 15 minutes each time in 3% acetic acid. The membrane was rinsed in water and left to dry overnight. The blot was scanned on Bio-Rad GS-700 Image Analysis Densitometer and volume (OD*mm^2) of color/slot determined using molecular analyst software. Fold increase over control was calculated as a ratio of densitometer reading for cells treated with a test compound over control.

[4] abbreviates: Homo sapiens, 20 h, Table 3A, 20 hour incubation, 96 well plate, read-out: % Reduction.
Setting [5] is: Table 6B, 0.0046% test compound.
Setting [6] is: Homo sapiens, 0.5 h, Table 4, 30 minute incubation, 48 well plate, read-out: % Reduction.
Where [7] appears, read: Table 6B, positive control, concentration not given.
Where [8] appears, read: positive control, concentration not given.

As for `O=S1(=O)OC(c2ccc(O)cc2)(c2ccc(O)cc2)c2ccccc21` [Phenol Red], the inhibition at 0.001 % in assay [1] (Homo sapiens, 20 h, Table 1, 20 hour incubation, 48 well plate, read-out: % Reduction) is 19.6%; in assay [1] (setting [4]), 14%. Also, the inhibition at 0.01 % in assay [1] (setting [4]) turned out to be 71.2%.
Regarding `CC(C)CCCCCCCCCCOC(=O)c1ccccc1` [Isotridecyl Benzoate], in assay [1] (Homo sapiens, 20 h, Table 5, 0.000039% test agent, 20 hour incubation, 48 well plate, read-out: % Reduction), the inhibition at 3.9e-05 % was found to be 36.3%. For the same compound, the inhibition at 0.00039 % in assay [1] (Homo sapiens, 20 h, Table 5, 0.00039% test agent, 20 hour incubation, 48 well plate, read-out: % Reduction) turned out to be 52.2%. Besides, the inhibition at 0.0039 % in assay [1] (Homo sapiens, 20 h, Table 5, 0.0039% test agent, 20 hour incubation, 48 well plate, read-out: % Reduction) is 41.8%. For the same compound, the “Average OD Reading” value in assay [2] (Table 6B, 0.003% test compound) came to 2.534; in assay [2] (Table 6B, 0.030% test compound), 2.669; in assay [3] (0.003% test compound) it was 0.22; in assay [3] (0.03% test compound) it was 0.38. In addition, the “Fold increase over control” value in assay [2] (Table 6B, 0.003% test compound) worked out at 1.3 fold; in assay [2] (Table 6B, 0.030% test compound), 1.4 fold; in assay [3] (0.003% test compound), 0.8 fold; in assay [3] (0.03% test compound), 1.5 fold.
As for `CCCC(=O)OCCCCCCCCCCC(C)C` [Isotridecyl Butyrate], the inhibition at 0.00027 % in assay [1] (Homo sapiens, 20 h, Table 3C, 0.00027% test agent, 20 hour incubation, 48 well plate, read-out: % Reduction) was 4.1%. For the same compound, in assay [1] (Homo sapiens, 20 h, Table 3C, 0.0027% test agent, 20 hour incubation, 48 well plate, read-out: % Reduction), the inhibition at 0.0027 % stood at 17.2%. The “sebum suppression, result in words” value in assay [1] is “not effective sebum suppressive agents”.
On to `CCCCC/C=C\C/C=C\CCCCCCCC(=O)OCCCCCCCCCCC(C)C` [Isotridecyl Linoleate], for which the inhibition at 4.6e-05 % in assay [1] (Homo sapiens, 20 h, Table 5, 0.000046% test agent, 20 hour incubation, 48 well plate, read-out: % Reduction) is 57.3%. Besides, the inhibition at 0.00046 % in assay [1] (Homo sapiens, 20 h, Table 5, 0.00046% test agent, 20 hour incubation, 48 well plate, read-out: % Reduction) worked out at 50.9%. The inhibition at 0.0046 % in assay [1] (Homo sapiens, 20 h, Table 5, 0.0046% test agent, 20 hour incubation, 48 well plate, read-out: % Reduction) was determined as 44.9%. For the same compound, the “Average OD Reading” value in assay [2] (setting [5]) is listed as 2.346; in assay [2] (Table 6B, 0.046% test compound), 2.4585; in assay [3] (0.0046% test compound), 0.40; in assay [3] (0.046% test compound), 0.29. Besides, the “Fold increase over control” value in assay [2] (setting [5]) is 1.2 fold; in assay [2] (Table 6B, 0.046% test compound) it was 1.3 fold; in assay [3] (0.0046% test compound), 1.5 fold; in assay [3] (0.046% test compound), 1.1 fold.
In the case of `CC(C)CCCCCCCCCCOC(=O)c1ccccc1O` [Isotridecyl salicylate], in assay [1] (Homo sapiens, 0.5 h, Table 4, 0.005% test agent, 30 minute incubation, 48 well plate, read-out: % Reduction), the inhibition at 0.005 % stood at 24.6%. In addition, in assay [1] (setting [6]), the inhibition at 0.01 % is 48.9%. Moreover, the “sebum suppression, result in words” value in assay [1] is on record as “effective in suppressing sebum”.
Turning to `CCCCCCCCCC(=O)OCCCCCCCCCCC(C)C` [Isotridecyl Decanoate], the “sebum suppression, result in words” value in assay [1] is given as “not effective sebum suppressive agents”.
As for TGF-b, the “Average OD Reading” value in assay [2] (Table 6A, test compound 0.01%, densitometer volume (OD*mm^2)) was 6.787; in assay [2] (setting [7]) it was 4.099; in assay [3] (setting [8]), 0.86. The “Fold increase over control” value was 1.9 fold in assay [2] (Table 6A, test compound 0.01%, ratio of densitometer reading over control); 2.1 fold in assay [2] (setting [7]); 3.3 fold in assay [3] (setting [8]).
For `CCCCCCCCCCCCCC(=O)OC(C)C` [Isopropyl Myristate, Isopropyl myristate], in assay [1] (setting [4]), the inhibition at 0.001 % is -6.3% and the inhibition at 0.01 % was found to be 4%. In assay [1], the “sebum suppression, result in words” value is “not an effective sebum suppressor”.
Take `CCCCCCCCCCCCCOC(=O)c1ccccc1O` [Straight Chain TDS, tridecyl salicylate]: the inhibition at 0.01 % in assay [1] (setting [6]) is 1.3%.
As for `CCCCCCCCC(=O)OCCCCCCCCCCC(C)C` [Isotridecyl Nonanoate], the inhibition at 0.001 % in assay [1] (Homo sapiens, 20 h, Table 3B, 20 hour incubation, 48 well plate, read-out: % Reduction) was 0.7%. In addition, in assay [1] (Homo sapiens, 20 h, Table 3B, 0.1% test agent, 20 hour incubation, 48 well plate, read-out: % Reduction), the inhibition at 0.1 % was found to be 0.8%. Moreover, the “sebum suppression, result in words” value in assay [1] was “not effective sebum suppressive agents”.
